Measured values: patent US10414763B2 (CANCER RESEARCH TECHNOLOGY LIMITED, priority 2014, dated 2019)

These compounds were tested against T1, full-length human PKCι (Homo sapiens, UniProt P41743) (assay: PKCι IC50 IMAP fluorescence polarisation assay, full-length enzyme, 150 μM ATP). Settings: read-out: IC50 in IMAP assay against full length PKCi at 150 μM ATP.
T1 construct: Recombinant, full-length human PKCι expressed in Sf21 insect cells is also commercially available; purchased EMD Millipore; host or cells: Sf21 insect cells (baculovirus)
T1 sequence (P41743 1-596): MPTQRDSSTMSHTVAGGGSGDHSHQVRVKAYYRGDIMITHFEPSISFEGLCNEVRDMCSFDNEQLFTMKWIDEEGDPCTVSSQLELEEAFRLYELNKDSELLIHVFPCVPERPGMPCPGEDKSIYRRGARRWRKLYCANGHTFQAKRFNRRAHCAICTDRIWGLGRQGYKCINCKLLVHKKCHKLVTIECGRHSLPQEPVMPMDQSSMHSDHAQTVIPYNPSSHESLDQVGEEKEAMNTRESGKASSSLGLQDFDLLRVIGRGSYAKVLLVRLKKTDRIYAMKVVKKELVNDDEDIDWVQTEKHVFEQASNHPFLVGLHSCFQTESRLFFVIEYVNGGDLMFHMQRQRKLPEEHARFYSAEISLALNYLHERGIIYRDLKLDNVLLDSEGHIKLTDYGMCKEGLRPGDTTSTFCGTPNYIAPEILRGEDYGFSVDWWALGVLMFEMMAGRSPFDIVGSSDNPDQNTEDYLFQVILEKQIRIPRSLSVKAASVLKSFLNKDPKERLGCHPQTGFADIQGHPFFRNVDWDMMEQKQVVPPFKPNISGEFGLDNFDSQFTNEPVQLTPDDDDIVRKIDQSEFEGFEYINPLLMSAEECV
Assay type: biochemical
How it was run: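 IMAP fluorescence polarisation kinase assay: 15 pM baculovirus-expressed human PKCiota with 100 nM FAM-pseudosubstrate peptide and 150 μM ATP, 1 h at 25 °C. IMAP detection reagent then 2 h at 25 °C before FP measurement. Inhibition referenced to no-compound and no-enzyme controls for IC50 fitting.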
For `CN(c1nc(-c2ccnc(Nc3nc(F)c(F)cc3F)c2)nc2cncc(C3CCC3)c12)C1CCNCC1(C)C` (stereo not shown) [Example 106, {5-Cyclobutyl-2-[2-(3,5,6-trifluoro-pyridin-2-ylamino)-pyridin-4-yl]-pyrido[3,4-d]pyrimidin-4-yl}-(3,3-dimethyl-piperidin-4-yl)-methyl-amine], the IC50 was under 100 nM. In the case of `CC1(C)CNCCC1Nc1nc(-c2ccnc(Nc3cc(C#N)ccn3)c2)nc2cncc(C3CCC3)c12` (stereo not shown) [Example 107, 2-{4-[5-Cyclobutyl-4-(3,3-dimethyl-piperidin-4-ylamino)-pyrido[3,4-d]pyrimidin-2-yl]-pyridin-2-ylamino}-isonicotinonitrile], the IC50 is reported as under 100 nM. In the case of `Fc1cc(F)c(Nc2cc(-c3nc(N[C@H]4[C@@H]5CNC[C@@H]54)c4c(C5CCC5)cncc4n3)ccn2)nc1F` [Example 108, (1S,6S)-3-Aza-bicyclo[3.1.0]hex-6-yl-{(R)-5-cyclobutyl-2-[2-(3,5,6-trifluoro-pyridin-2-ylamino)-pyridin-4-yl]-pyrido[3,4-d]pyrimidin-4-yl}-amine], the IC50 is reported as under 100 nM. With `Fc1ccc(F)c(Nc2cc(-c3nc(N[C@H]4[C@@H]5CNC[C@@H]54)c4c(C5CCC5)cncc4n3)ccn2)n1` [Example 109, (1S,6S)-3-Aza-bicyclo[3.1.0]hex-6-yl-{(R)-5-cyclobutyl-2-[2-(3,6-difluoro-pyridin-2-ylamino)-pyridin-4-yl]-pyrido[3,4-d]pyrimidin-4-yl}-amine] the IC50 was under 100 nM. For `CN(c1nc(-c2ccnc(Nc3ccccc3)c2)nc2cncc(C3CCC3)c12)C1CCNCC1(C)C` (stereo not shown) [Example 110, [5-Cyclobutyl-2-(2-phenylamino-pyridin-4-yl)-pyrido[3,4-d]pyrimidin-4-yl]-(3,3-dimethyl-piperidin-4-yl)-methyl-amine], the IC50 was under 100 nM. For `c1ccc(Nc2cc(-c3nc(N[C@H]4[C@@H]5CNC[C@@H]54)c4c(C5CCC5)cncc4n3)ccn2)cc1` [Example 111, (1S,6S)-3-Aza-bicyclo[3.1.0]hex-6-yl-[(R)-5-cyclobutyl-2-(2-phenylamino-pyridin-4-yl)-pyrido[3,4-d]pyrimidin-4-yl]-amine], the IC50 was under 100 nM. `COc1nc(-c2cc3c(-c4nc(N5CCNCC5)c5c(C6CC6)cncc5n4)ccnc3[nH]2)cs1` [Example 112, 5-Cyclopropyl-2-[2-(2-methoxy-thiazol-4-yl)-1H-pyrrolo[2,3-b]pyridin-4-yl]-4-piperazin-1-yl-pyrido[3,4-d] pyrimidine] showed an IC50 of under 100 nM. Compound `Cc1cc2c(-c3nc(N(C)C4CCNCC4(C)C)c4c(C5CC5)cncc4n3)ccnc2[nH]1` (stereo not shown) [Example 115, [5-Cyclopropyl-2-(2-methyl-1H-pyrrolo[2,3-b]pyridin-4-yl)-pyrido [3,4-d]pyrimidin-4-yl]-(3,3-dimethyl-piperidin-4-yl)-methyl-amine] has an IC50 of under 100 nM. `Cc1cc2c(-c3nc(N(C)C4CCNCC4(C)C)c4c(C5CCC5)cncc4n3)ccnc2[nH]1` (stereo not shown) [Example 116, [5-Cyclobutyl-2-(2-methyl-1H-pyrrolo[2,3-b]pyridin-4-yl)-pyrido[3,4-d]pyrimidin-4-yl]-(3,3-dimethyl-piperidin-4-yl)-methyl-amine] showed an IC50 of under 100 nM. `COc1nc(-c2cc3c(-c4nc(N5CCC6CNCCC65)c5c(C6CC6)cncc5n4)ccnc3[nH]2)cs1` (stereo not shown) [Example 118, 5-Cyclopropyl-2-[2-(2-methoxy-thiazol-4-yl)-1H-pyrrolo[2,3-b]pyridin-4-yl]-4-(octahydro-pyrrolo[3,2-c]pyridin-1-yl)-pyrido[3,4-d]pyrimidine] showed an IC50 of under 100 nM. Work on `CSc1cc2c(-c3nc(N(C)C4CCNCC4)c4c(C5CC5)cncc4n3)ccnc2[nH]1` [Example 119, [5-Cyclopropyl-2-(2-methylsulfanyl-1H-pyrrolo[2,3-b]pyridin-4-yl)-pyrido[3,4-d]pyrimidin-4-yl]-methyl-piperidin-4-yl-amine] yielded an IC50 of under 100 nM. For `CS(=O)(=O)c1cc2c(-c3nc(N4CCNCC4)c4c(C5CCC5)cncc4n3)ccnc2[nH]1` [Example 120, 5-Cyclobutyl-2-(2-methanesulfonyl-1H-pyrrolo[2,3-b]pyridin-4-yl)-4-piperazin-1-yl-pyrido[3,4-d]pyrimidine], the IC50 was under 100 nM. `N[C@H]1C[C@@H](Nc2nc(-c3ccnc4[nH]c5ccccc5c34)nc3cncc(C4CCC4)c23)C1` [Example 121, cis-[5-Cyclobutyl-2-(9H-pyrido[2,3-b]indol-4-yl)-pyrido[3,4-d]pyrimidin-4-yl]-cyclobutane-1,3-diamine] gave an IC50 of under 100 nM. With `OC1CNCCC(Nc2nc(-c3ccnc4[nH]c5ccccc5c34)nc3cncc(C4CCC4)c23)C1` (stereo not shown) [Example 122, 5-[5-Cyclobutyl-2-(9H-pyrido[2,3-b]indol-4-yl)-pyrido[3,4-d]pyrimidin-4-ylamino]-azepan-3-ol] the IC50 was under 100 nM. `Fc1cc(F)c(Nc2cc(-c3nc(N4CCC5NCCCC54)c4c(C5CCC5)cncc4n3)ccn2)nc1F` (stereo not shown) [Example 123, {4-[5-Cyclobutyl-4-(octahydro-pyrrolo[3,2-b]pyridin-1-yl)-pyrido[3,4-d]pyrimidin-2-yl]-pyridin-2-yl}-(3,5,6-trifluoro-pyridin-2-yl)-amine] gave an IC50 of under 100 nM. For `Fc1ccc(F)c(Nc2cc(-c3nc(N4CCC5NCCCC54)c4c(C5CCC5)cncc4n3)ccn2)n1` (stereo not shown) [Example 124, {4-[5-Cyclobutyl-4-(octahydro-pyrrolo[3,2-b]pyridin-1-yl)-pyrido[3,4-d]pyrimidin-2-yl]-pyridin-2-yl}-(3,6-difluoro-pyridin-2-yl)-amine], the IC50 was under 100 nM. Compound `c1ccc(Nc2cc(-c3nc(N4CCC5NCCCC54)c4c(C5CCC5)cncc4n3)ccn2)cc1` (stereo not shown) [Example 125, {4-[5-Cyclobutyl-4-(octahydro-pyrrolo[3,2-b]pyridin-1-yl)-pyrido[3,4-d]pyrimidin-2-yl]-pyridin-2-yl}-phenyl-amine] has an IC50 of under 100 nM. Work on `CC1CNCCC1Nc1nc(-c2ccnc(Nc3nc(F)c(F)cc3F)c2)nc2cncc(C3CCC3)c12` (stereo not shown) [Example 126, {5-Cyclobutyl-2-[2-(3,5,6-trifluoro-pyridin-2-ylamino)-pyridin-4-yl]-pyrido[3,4-d]pyrimidin-4-yl}-(3-methyl-piperidin-4-yl)-amine] yielded an IC50 of under 100 nM. `CC1CNCCC1Nc1nc(-c2ccnc(Nc3nc(F)ccc3F)c2)nc2cncc(C3CCC3)c12` (stereo not shown) [Example 127, {5-Cyclobutyl-2-[2-(3,6-difluoro-pyridin-2-ylamino)-pyridin-4-yl]-pyrido[3,4-d]pyrimidin-4-yl}-(3-methyl-piperidin-4-yl)-amine] gave an IC50 of under 100 nM. In the case of `Clc1ccccc1-c1cc2c(-c3nc(N4CCC5NCCC54)c4c(C5CC5)cncc4n3)ccnc2[nH]1` (stereo not shown) [Example 128, 2-[2-(2-Chloro-phenyl)-1H-pyrrolo[2,3-b]pyridin-4-yl]-5-cyclopropyl-4-(hexahydro-pyrrolo[3,2-b]pyrrol-1-yl)-pyrido[3,4-d]pyrimidine], the IC50 is reported as under 100 nM. `Clc1ccccc1-c1cc2c(-c3nc(N4CCC5NCCCC54)c4c(C5CC5)cncc4n3)ccnc2[nH]1` (stereo not shown) [Example 129, 2-[2-(2-Chloro-phenyl)-1H-pyrrolo[2,3-b]pyridin-4-yl]-5-cyclopropyl-4-(octahydro-pyrrolo[3,2-b]pyridin-1-yl)-pyrido [3,4-d]pyrimidine] showed an IC50 of under 100 nM. For `Clc1cc2c(-c3nc(N4CCNCC4)c4c(C5CCC5)cncc4n3)ccnc2[nH]1` [Example 130, 2-(2-Chloro-1H-pyrrolo[2,3-b]pyridin-4-yl)-5-cyclobutyl-4-piperazin-1-yl-pyrido[3,4-d]pyrimidine], the IC50 was under 100 nM.
